According to patent US20100303833A1, “Method for Identifying a MHC Class H-Dependent Tumor Associated T Helper Cell Antigen” (priority 2005, published 2010):
Ends that are not written are not given here.

Columns and labels:
Format in all cases: cell-based, human
Th35-1A cells = experiment: Lymphocyte proliferation assay ([3H]-thymidine incorporation), Th35-1A cells with peptide-pulsed monocytes; conditions: for HLA dependence of peptide recognition by Th35-1A: peptide-pulsed autologous DR7+ monocytes, anti-HLA class II antibody or control mouse Ig at 10 μg/mL (FIG. 2A)
Experimental: (§1) Lymphocyte Proliferation Assay. The lymphocyte proliferation assay was performed according to standard methods (Somasundaram, et al. (1995) J. Immunol. 155:3253-61). For screening of Th35-1A cell-reactivity with phage libraries, T helper cells (1-2×10^4/well of 96-well round-bottom microtiter plates; CORNING, Corning, N.Y.) were cultured with irradiated autologous EBV-B cells (10^4/well) pre-pulsed with 1-3×10^3 phage. To determine T helper or PBMC reactivity with peptide, adherent monocytes (5×10^4/well, obtained from PBMC) pre-pulsed with various concentrations (3.1-50 μM) of peptide were incubated with Th35-1A cells or PBMC (5×10^4/well). T helper cells or PBMC were stimulated with peptide-pulsed monocytes once or twice. All incubations were at 37° C. for 5 days in RPMI 1640/GLUTAMAX medium supplemented with 10% heat-inactivated human AB serum (Gemini Bioproducts, West Sacramento, Calif.), 10 mM HEPES and 5×10^−5 M 2-mercaptoethanol (both from SIGMA-ALDRICH). Proliferative responses of lymphocytes were determined using a standard [^3H]-thymidine incorporation assay. All determinations were performed in triplicate. Results are expressed as counts per minute (cpm) incorporated into lymphocytes. The lymphocyte proliferation inhibition assay with anti-HLA class II antibody B33.1 was performed using established methods (Somasundaram, et al. (1995) supra).

PBMC = experiment: Lymphocyte proliferation assay ([3H]-thymidine incorporation), PBMC with peptide-pulsed autologous monocytes
Experimental: as §1

lymphocytes = experiment: IFN-γ release assay (ELISA)
Experimental: IFN-γ Release Assay. Supernatants obtained 48 hours after T helper cell stimulation with phage-pulsed EBV-B cells were tested for the presence of IFN-γ using an ENDOGEN ELISA kit (Pierce Biotechnology, Inc., Rockford, Ill.).

Sequence: TGRLRGTKTVQEKEN [peptide #2, RPL8 position 243-257]
- Recognition by Th35-1A (Th35-1A cells; after presentation by autologous monocytes (FIG. 2A)): recognized
- Presentation of peptide to Th35-1A cells by allogeneic DR7+ monocytes (Th35-1A cells; allogeneic DR7+ monocytes (FIG. 2C)): presented
- Presentation of peptide to Th35-1A cells by DR7− monocytes (Th35-1A cells; allogeneic DR7− monocytes (FIG. 2D)): did not
- HLA dependence of peptide recognition by Th35-1A (Th35-1A cells): HLA class II-dependent
- HLA dependence of peptide recognition by Th35-1A (Th35-1A cells; listed as RPL8 peptide #2): HLA DR7- and peptide concentration-dependent
- Th35-1A proliferation, dependence on peptide concentration (Th35-1A cells; peptide-pulsed autologous monocytes, various concentrations (FIG. 2B)): peptide concentration-dependent
- Proliferation of autologous PBMC following peptide stimulation (PBMC; lymphocytes from two of the three DR7+ melanoma patients (FIGS. 3A-3C), stimulated twice): significantly and specifically proliferated
- Lymphoproliferative responses to peptide stimulation (PBMC; two DR7− melanoma patients (FIGS. 3D, 3E) and four healthy donors (FIG. 3F), one peptide stimulation, listed as RPL8 peptide #2): did not respond
- IFN-γ produced (lymphocytes; non-proliferating lymphocytes from two DR7− patients (FIGS. 3D, 3E) and healthy donor (FIG. 3F)): < 12 pg/mL
- IFN-γ produced maximally (lymphocytes; proliferating lymphocytes from DR7+ patient of FIG. 3A): 124.3±1.67 pg per mL
- IFN-γ produced maximally (lymphocytes; proliferating lymphocytes from DR7+ patient of FIG. 3B): 224.3±4.3 pg per mL
